Results reported in patent US20260256741A1, “ANTICANCER MALEIMIDE DERIVATIVES FOR USE WITH IMMUNE CHECKPOINT BLOCKADE” (BROWN UNIVERSITY, priority 2022, published 2026).

Columns and labels:
[1] = system: TALL-104 cells; test: Microarray gene expression analysis, TALL-104; type: cell-based, human
Experimental: (§1) A total of 0.5×10^6 tumor cells (HCT-116, HT-29, KM12C) were plated in a 6-well plate and allowed to adhere overnight before 24-hour treatment as indicated. 1×10^6 immune cells (NK92, TALL-104) were plated and treated with elraglusib as indicated for 24 hours. RNA was isolated from cell pellets in batches of 6 using an RNeasy Plus Mini Kit (Cat #74134, Qiagen, Hilden, Germany). Acceptable RNA concentration and quality were verified with Nanodrop and Bioanalyzer measurements. GeneChip™ Human Transcriptome Array 2.0 assays were conducted according to manufacturer instructions in two batches using randomized samples to limit batch effects (Cat #902162, Applied Biosystems, Waltham, MA, USA). Applied Biosystems Transcriptomic Analysis Console (TAC) software (RRID: SCR_016519) was used to calculate fold changes in gene expression relative to the untreated control cells. Values were considered statistically significant for p values <0.05.

[2] = system: HT-29 cells; test: Microarray gene expression analysis, HT-29; type: cell-based, human
Experimental: as §1

[3] = system: HCT-116 CRC cells; test: Western blot analysis of HCT-116 CRC cells; type: cell-based, human
Experimental: Recombinant Human TNF-α (Cat #300-01A, PeproTech, Rocky Hill, NJ, USA) and Recombinant Human IFN-γ (Cat #300-02, Peprotech, Rocky Hill, NJ, USA) were purchased for use in western blot analysis while rhTRAIL was generated in-house. Kim et al., J Biol Chem., 279(38):40044-52 (2004).
Cells were plated in a 6-well plate and incubated overnight before the spent media was replaced with drugged media. Drug treatment lasted for indicated durations. Protein was extracted using radioimmunoprecipitation (RIPA) assay buffer (Cat #R0278, Sigma-Aldrich, St. Louis, MO) containing cOmplete™, Mini, EDTA-free Protease Inhibitor Cocktail (Cat #4693159001, Roche, Basel, Switzerland) from sub-confluent cells. Denaturing sample buffer was added, samples were boiled at 95 degrees for 10 minutes, and an equal amount of protein lysate was electrophoresed through NuPAGE™ 4 to 12%, Bis-Tris, 1.5 mm, Mini Protein Gels (Invitrogen, Waltham, MA) then transferred to PVDF membranes. The PVDF membrane was blocked with 5% non-fat milk (Sigma-Aldrich, St. Louis, MO) in 1×TTBS. Primary antibodies were incubated with the transferred PVDF membrane in blocking buffer at 4° C. overnight. Secondary antibodies used included Goat anti-Rabbit IgG (H+L) Secondary Antibody, HRP (Cat #31460, Invitrogen, Waltham, MA), and Goat anti-Mouse IgG (H+L) Secondary Antibody, HRP (Cat #31430, Invitrogen, Waltham, MA). Signal was detected using Pierce™ ECL Western Blotting Substrate (Cat #32106, Thermo Scientific, Waltham, MA, USA) and a Syngene Imaging System (RRID: SCR_015770).

[4] = system: CRC (HCT-116, HT-29) and TALL-104 cells; test: Pyroptotic events in 40x co-culture images; type: cell-based, human
Experimental: (§2) 5000 HT-29 GFP+ or HCT 116 GFP+ cells were plated per well in a clear-bottom, black-walled 96-well tissue culture plate and were allowed to adhere overnight. Cells were subsequently treated with DMSO, 5 μM elraglusib, and/or 5000 TALL-104 or NK-92 cells (for an effector-to-tumor ratio of 1:1) for 48 hours. Nine images were taken per well at 10× magnification using a Molecular Devices ImageXpress® Confocal HT.ai High-Content Imaging System and quantified for the number of GFP+ objects using the MetaXpress (RRID: SCR_016654) software (Molecular Devices, San Jose, CA, USA). 40× Images were also taken at 24 hours for representative images of cellular morphology changes. Statistical analysis was done using GraphPad Prism 9 (RRID: SCR_002798).

[5] = system: refractory solid tumors of multiple tissue origins; test: Phase 1 clinical trial of elraglusib (NCT03678883), PFS and OS; type: in vivo, human; conditions: patients analysed, n=19, multiple tumor types
Experimental: Archival tumor specimens and peripheral blood samples were collected from patients enrolled in the Phase I study of Elraglusib (9-ING-41), a small molecule selective glycogen synthase kinase-3 beta (GSK-3b) inhibitor, as monotherapy or combined with cytotoxic regimens in patients with relapsed or refractory hematologic malignancies or solid tumors (Clinicaltrials.gov NCT03678883) who received treatment at the Lifespan Cancer Institute (Providence, RI, USA). The study was conducted in accordance with the Declaration of Helsinki and the International Conference on Harmonization Good Clinical Practice guidelines. The study protocol was approved by the Institutional Review Board (IRB) of Rhode Island Hospital under protocol number 1324888-120. The patients also participated in a Lifespan Cancer Institute research protocol designed to investigate molecular and genetic features of tumors and mechanisms of resistance (Rhode Island Hospital IRB protocol number 449060-38). All patients provided written informed consent.

[6] = system: HCT 116 GFP+ cells; test: Single-color GFP+ immune cell co-culture, HCT 116; type: cell-based, human; conditions: 48 hours
Experimental: 50,000 HT-29 or HCT 116 cells were seeded in a 12-well tissue culture plate and allowed to adhere overnight. They were then transduced with lentivirus containing the plasmid pLenti_CMV_GFP_Hygro [pLenti CMV GFP Hygro (656-4) was a gift from Eric Campeau & Paul Kaufman (Addgene viral prep #17446-LV; RRID: Addgene_17446)] at a multiplicity of infection of 10 with 8 μg/mL polybrene (hexadimethrine bromide [Cat #107689, Sigma Aldrich, St. Louis, MO, USA) for 24 hours before washing with PBS and replacing with fresh medium (49). The cells were then sorted for GFP-positivity using a BD FACSAria™ III Cell Sorter (RRID: SCR_016695).
as §2

[7] = IC-50 concentration (1 μM), 24 hours, FC cutoff >1.5, <−1.5, p<0.05
[8] = especially at later timepoints (48, 72 hr)

SMILES: Cn1cc(C2=C(c3coc4ccc(F)cc34)C(=O)NC2=O)c2cc3c(cc21)OCO3 [elraglusib, 3-(5-fluorobenzofuran-3-yl)-4-(5-methyl-5H-[1,3]dioxolo[4,5-f]indol-7-yl)-1H-pyrrole-2,5-dione]
- CCL3 gene expression fold change ([1]; 24 hours vs DMSO): 1.52 FC
- KIF7 gene expression fold change ([1]; 24 hours vs DMSO): 1.56 FC
- PTPN3 gene expression fold change ([1]; 24 hours vs DMSO): −1.56 FC
- differentially expressed genes post-treatment [1, 7]: 64
- NCR3LG1 (B7-H6) gene expression fold change ([2]; 24 hours vs DMSO): 1.78 FC
- downregulated genes in VEGFA-VEGFR2 signaling pathway ([2]; 24 hours vs DMSO): 37
- differentially expressed genes post-treatment [2, 7]: 2,307
- NF-κB p65 expression ([3]; as the 0-72 hour time-course progressed): decreased expression
- PD-L1 expression ([3]; as the treatment duration increased (0-72 hours)): increases in PD-L1 expression
- Mcl-1 protein expression ([3]; by the 24-hour timepoint): marked decreases in protein expression
- Bcl-2 protein expression [3, 8]: decreases in protein expression
- Survivin protein expression [3, 8]: decreases in protein expression
- cleaved PARP (cPARP) ([3]; low dose as in co-culture assays, until the 48-hour timepoint of 72-hour timecourse): little to no cleaved PARP
- pyroptotic events ([4]; co-culture of CRC and TALL-104 cells with 5 μM elraglusib): significant increase in pyroptotic events
- pyroptotic events ([4]; drug-only condition, no immune cells): did not observe any pyroptotic events
- median OS [5]: 101 days
- median PFS [5]: 75.9 days
- tumor cell death ([6]; 5 μM elraglusib and NK-92 cells vs drug-only or immune cell-only): increased tumor cell death
- GFP+ cells per low-powered field ([6]; 5 μM elraglusib only vs DMSO only control): significant decrease
- number of GFP+ cells per field ([6]; TALL-104 and 5 μM elraglusib vs TALL-104 only): significant decrease
